Where no end group is shown, it is not given here.

The source of these data is article PMC3852005, “Crystal Structures of the Human G3BP1 NTF2-Like Domain Visualize FxFG Nup Repeat Specificity” (PLoS ONE, 2013).

Assay [1] concerns the target T1, G3BP1 1–139 Phe15Ala mutant (Homo sapiens, UniProt Q13283, F15A).
T1 construct: The expression vector for the G3BP1 1–139 Phe15Ala mutant was produced by GenScript Inc. (USA); His6 (thrombin-cleavable) (N, cleaved yes); made in house; host or cells: Escherichia coli BL21(DE3)
In words: ITC, FxFG peptide binding to G3BP1 1–139 Phe15Ala mutant. The settings on record: ITC (VP-ITC), 0.1 M NaCl and 0.1 M HEPES, pH 8, 20°C, aliquots of 15 µL peptide (4.1 mM) every 360 seconds, single experiment. How it is done: (§1) The three synthetic peptides, GQSPGFGQGGSV (referred to as FG), DSGGLFGSK (GLFG) and DSGFSFGSK (FxFG), were obtained as more than 98% pure lyophilized chloride salts from Caslo Laboratory ApS, Denmark.
Data for the Phe15Ala G3BP1 mutant were collected in a single experiment on a VP-ITC (MicroCal) instrument using buffer conditions as for the wildtype. Aliquots of 15 µL peptide (4.1 mM) were injected into the protein sample every 360 seconds at 20°C.
(Isothermal titration calorimetry measures the heat released or taken up as one component is titrated into another.)

The target in assay [2] is T2, human G3BP1 NTF2-like domain (G3BP1 1–139) (Homo sapiens, UniProt Q13283).
T2 construct: His6 (thrombin-cleavable) (N, cleaved yes); made in house; host or cells: Escherichia coli BL21(DE3)
The experiment in a line: ITC, Nup peptide binding to G3BP1 NTF2-like domain (1–139). As to conditions: 0.1 M NaCl and 0.1 M HEPES, pH 8, 25°C, repeated three times; for heat changes on titration (ITC): titration of peptide into G3BP1 1–139, ITC200, aliquots of 2 µL peptide (5.2 mM). The protocol:
as §1
(§2) ITC measurements for the wild type NTF2-like domain were performed with an ITC200 titration calorimeter (MicroCal). Data analysis was done using the Origin software. Protein samples were dialyzed against 0.1 M NaCl and 0.1 M HEPES, pH 8, and passed through 0.22 µm centrifugal filter units (Millipore) before the experiments. Peptides were solubilized in the dialysis buffer and the pH adjusted before filtration. In each experiment, aliquots of 2 µL peptide (5.2 mM) were injected into the sample cell every 180 seconds at 25°C. Background measurements were performed with buffer injected into the protein solution and peptides injected into the buffer solution. The concentrations of the peptides were determined by amino acid analysis (Department of Systems Biology, DTU, Denmark). Experiments were repeated three times and the results given as mean ± standard deviation.

Assay [3] deals with T3, G3BP2a NTF2-like domain (G3BP2a 1–139) (Homo sapiens, UniProt Q9UN86).
T3 construct: His6 (thrombin-cleavable) (N, cleaved yes); made in house; host or cells: Escherichia coli BL21(DE3)
T3 sequence (Q9UN86 1-139): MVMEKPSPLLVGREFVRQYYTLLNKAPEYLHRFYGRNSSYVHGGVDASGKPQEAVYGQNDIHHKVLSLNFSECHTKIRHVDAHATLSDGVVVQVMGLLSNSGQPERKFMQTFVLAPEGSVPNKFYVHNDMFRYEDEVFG
The experiment in a line: ITC, Nup peptide binding to G3BP2a NTF2-like domain (1–139). The settings on record: 0.1 M NaCl and 0.1 M HEPES, pH 8, 25°C, repeated three times; for heat changes on titration (ITC): titration of peptide into G3BP2a 1–139 (data not shown), ITC200, aliquots of 2 µL peptide (5.2 mM). The protocol: as §1, §2

The target in another assay is T4, FxFG Nup repeat peptide (also: chloride salt).
T4 chain: DSGFSFGSK
In words: ITC.

T2 sequence (Q13283 1-139): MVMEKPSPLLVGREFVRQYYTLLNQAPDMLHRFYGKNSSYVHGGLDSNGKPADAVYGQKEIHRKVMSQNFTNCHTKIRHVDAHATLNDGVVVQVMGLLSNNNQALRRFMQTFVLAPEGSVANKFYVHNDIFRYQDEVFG
T1 sequence (Q13283 1-139 F15A): as the sequence (Q13283 1-139) above, with F15A counted along it

For DSGFSFGSK [FxFG, DSGFSFGSK], the Kd (as a rule, the constant that tells how readily two partners part at equilibrium) in assay [1] is 670 µM; in assay [2] (ITC (ITC200), G3BP1 1–139, aliquots of 2 µL peptide (5.2 mM) every 180 seconds, one-binding-site per chain model, mean ± standard deviation), 115 ± 3 µM; in assay [3] (ITC (ITC200), G3BP2a NTF2-like domain, aliquots of 2 µL peptide (5.2 mM) every 180 seconds, mean ± standard deviation, data not shown) it was 114 ± 2 µM.

Take “GQSPGFGQGGSV [synthetic nucleoporin FG repeat peptide, more than 98% pure, from Caslo Laboratory]”: the “heat changes on titration (ITC)” value in assay [2] and in assay [3] was “did not result in significant heat changes” throughout.

Take “DSGGLFGSK [synthetic nucleoporin GLFG repeat peptide, more than 98% pure, from Caslo Laboratory]”: the “heat changes on titration (ITC)” value in assay [2] and in assay [3] was “did not result in significant heat changes” each time.

B1: G3BP2a NTF2-like domain 1-139 (protein)
chain: MVMEKPSPLLVGREFVRQYYTLLNKAPEYLHRFYGRNSSYVHGGVDASGKPQEAVYGQNDIHHKVLSLNFSECHTKIRHVDAHATLSDGVVVQVMGLLSNSGQPERKFMQTFVLAPEGSVPNKFYVHNDMFRYEDEVFG
On to B1, for which the equilibrium dissociation constant (Kd) with FxFG Nup repeat peptide worked out at 114 µM.
